The source of these data is US20250101038A1, “COMPOUNDS” (priority 2021, published 2025).

In one assay the target is T1, 5-HT2B receptor (Homo sapiens, UniProt P41595).
T1 construct: host or cells: CHO-K1
As to the kind of experiment: cell-based. To be noted: agonist activity, Ca2+ flux, CHO-K1 cells; for EC50: read-out: 5-HT2B EC50. (A change in cytosolic calcium serves as a functional read-out for many receptors and channels.)

The next assay deals with T2, 5-HT2C receptor (Homo sapiens, UniProt P28335).
T2 construct: host or cells: HEK293
T2 sequence (P28335 33-458): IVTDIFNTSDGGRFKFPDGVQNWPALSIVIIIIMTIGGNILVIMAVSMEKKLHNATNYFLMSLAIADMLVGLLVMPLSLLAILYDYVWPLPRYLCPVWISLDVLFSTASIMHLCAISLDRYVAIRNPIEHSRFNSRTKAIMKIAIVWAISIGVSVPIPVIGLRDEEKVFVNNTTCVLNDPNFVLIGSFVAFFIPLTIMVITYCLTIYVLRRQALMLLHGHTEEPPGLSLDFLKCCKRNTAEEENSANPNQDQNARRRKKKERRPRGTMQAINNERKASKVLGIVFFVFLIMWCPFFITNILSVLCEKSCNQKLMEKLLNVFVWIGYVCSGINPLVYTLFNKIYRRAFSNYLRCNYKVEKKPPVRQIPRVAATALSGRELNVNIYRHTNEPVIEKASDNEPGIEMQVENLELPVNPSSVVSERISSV
The assay can be described thus: cell-based. To be noted: agonist activity, Ca2+ flux, HEK293 cells; for EC50: read-out: 5-HT2C EC50.

For a further assay, the target named is T3, 5-HT2A receptor (Homo sapiens, UniProt P28223).
T3 construct: host or cells: HEK293
T3 sequence (P28223 whole entry): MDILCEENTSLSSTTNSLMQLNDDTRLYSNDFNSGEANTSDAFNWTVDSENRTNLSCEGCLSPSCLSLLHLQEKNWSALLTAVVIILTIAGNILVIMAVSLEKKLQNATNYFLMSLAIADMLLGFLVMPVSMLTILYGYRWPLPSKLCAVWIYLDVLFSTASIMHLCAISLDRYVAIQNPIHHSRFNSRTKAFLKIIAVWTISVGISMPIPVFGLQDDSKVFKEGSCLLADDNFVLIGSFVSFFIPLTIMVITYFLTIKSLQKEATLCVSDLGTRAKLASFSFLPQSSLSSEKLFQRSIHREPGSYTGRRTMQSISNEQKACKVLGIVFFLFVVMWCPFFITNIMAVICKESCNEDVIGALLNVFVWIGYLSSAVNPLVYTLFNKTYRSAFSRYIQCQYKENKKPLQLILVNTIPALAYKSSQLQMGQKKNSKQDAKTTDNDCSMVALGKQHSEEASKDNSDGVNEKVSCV
The assay can be described thus: FLIPR Ca2+ flux functional assay, 5-HT2A. The class given is cell-based. To be noted: agonist activity, Ca2+ flux, HEK293 cells; for EC50: read-out: 5-HT2A EC50. Here is the method: Activity at 5-HT2A, 5-HT2B and 5-HT2C receptors was determined using a FLIPR Ca^2+ flux assay at WuXi AppTec Co. Ltd. (Hong Kong) Discovery Biology Unit according to their standard protocols. Briefly, stably transfected cells expressing the receptor of interest (HEK293 for 5-HT2A and 5-HT2C; CHO-K1 for 5-HT2B) were grown and plated in a 384 well plate and incubated at 37° C. and 5% CO2 overnight. A 250 mM stock solution of probenecid in FLIPR calcium assay buffer (10 mL) was freshly prepared and combined with a fluorescent dye (Fluo-4 Direct) to give a final assay concentration of 2.5 mM. Reference compounds were 4-fold serially diluted and the screening compounds were 3-fold serially diluted in 100% DMSO for 10 points using Agilent Bravo, and 750 nL was added to a 384 well compound plate using Echo along with 30 μL assay buffer. The fluorescent dye was then added to the assay plate along with assay buffer to a final volume of […]. The cell plate was incubated for 50 min at 37° C. and 5% CO2 and placed into the FLIPR Tetra along with the compound plate. 10 μL of references and compounds were then transferred from the compound plate into the cell plate and the fluorescent signal was read.

Structures are written as SMILES. A value given as a limit tells only on which side of the number the result lay.

T1 sequence (P41595 whole entry): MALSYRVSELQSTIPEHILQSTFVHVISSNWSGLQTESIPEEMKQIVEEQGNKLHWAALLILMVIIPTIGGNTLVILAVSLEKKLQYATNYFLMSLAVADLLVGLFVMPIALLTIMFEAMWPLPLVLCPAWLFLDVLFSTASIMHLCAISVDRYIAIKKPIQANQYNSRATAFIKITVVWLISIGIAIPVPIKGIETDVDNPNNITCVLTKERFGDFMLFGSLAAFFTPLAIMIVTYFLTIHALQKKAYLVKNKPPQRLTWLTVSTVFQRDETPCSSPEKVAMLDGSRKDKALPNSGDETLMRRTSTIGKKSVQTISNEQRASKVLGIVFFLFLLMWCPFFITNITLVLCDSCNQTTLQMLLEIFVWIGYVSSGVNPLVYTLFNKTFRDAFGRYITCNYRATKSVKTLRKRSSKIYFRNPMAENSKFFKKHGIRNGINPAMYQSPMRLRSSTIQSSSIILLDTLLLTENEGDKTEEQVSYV

Consider `CCN(CC)CCc1c[nH]c2c(C)ccc(O)c12` [Example P-88, 3-(2-(diethylamino)ethyl)-7-methyl-1H-indol-4-ol], for which the Emax (as a rule, the size of the effect at its maximum, as opposed to the concentration needed) was -0.07% at 5-HT2B receptor, 25.4% at 5-HT2C receptor and 61.1% on 5-HT2A receptor. In addition, the EC50 (in general, the midpoint of the concentration-response curve) at 5-HT2B receptor was at least 10 µM; on 5-HT2C receptor, 1.3 µM; on 5-HT2A receptor, 0.189 µM.

Take `CCCN(CCC)CCc1c[nH]c2c(C)ccc(O)c12` [Example P-89, 3-(2-(dipropylamino)ethyl)-7-methyl-1H-indol-4-ol]: the Emax at 5-HT2B receptor was determined as 6.63%; at 5-HT2C receptor it was 54.7%; at 5-HT2A receptor, 118%. The EC50 at 5-HT2B receptor was at least 10 µM; at 5-HT2C receptor, 0.889 µM; at 5-HT2A receptor, 0.0486 µM.

In the case of `Cc1ccc(O)c2c(CCN(C(C)C)C(C)C)c[nH]c12` [Example P-90, 3-(2-(diisopropylamino)ethyl)-7-methyl-1H-indol-4-ol], the Emax is 15.7% on 5-HT2B receptor, 50.2% on 5-HT2C receptor and 95.1% at 5-HT2A receptor. In addition, the EC50 is at least 10 µM at 5-HT2B receptor, 9.97 µM on 5-HT2C receptor and 0.817 µM at 5-HT2A receptor.

In the case of `COc1c(F)ccc2[nH]cc(CCN(C)C)c12` [Example P-91, 2-(5-fluoro-4-methoxy-1H-indol-3-yl)-N,N-dimethylethan-1-amine], the Emax came out at 4.57% on 5-HT2B receptor, 109% on 5-HT2C receptor and 74.9% on 5-HT2A receptor. For the same molecule, the EC50 at 5-HT2B receptor is over 10 µM; on 5-HT2C receptor, 0.00124 µM; at 5-HT2A receptor it was 0.00233 µM.

`CCN(C)CCc1c[nH]c2ccc(F)c(OC)c12` [Example P-92, N-ethyl-2-(5-fluoro-4-methoxy-1H-indol-3-yl)-N-methylethan-1-amine]: the figures for the Emax at 5-HT2B receptor, at 5-HT2C receptor and on 5-HT2A receptor were 25.1%, 75.3% and 78%, respectively. The EC50 at 5-HT2B receptor is over 10 µM; at 5-HT2C receptor it was 0.0179 µM; at 5-HT2A receptor, 0.00733 µM.

Consider `COc1c(F)ccc2[nH]cc(CCN(C)C(C)C)c12` [Example P-93, N-(2-(5-fluoro-4-methoxy-1H-indol-3-yl)ethyl)-N-methylpropan-2-amine], for which the Emax on 5-HT2B receptor was found to be 51.5%; at 5-HT2C receptor it was 85.1%; on 5-HT2A receptor, 95.3%. Besides, the EC50 was 0.0248 µM on 5-HT2B receptor, 0.0452 µM at 5-HT2C receptor and 0.00725 µM on 5-HT2A receptor.

Regarding `CCN(CC)CCc1c[nH]c2ccc(F)c(OC)c12` [Example P-94, N,N-diethyl-2-(5-fluoro-4-methoxy-1H-indol-3-yl)ethan-1-amine], the Emax was determined as 47.4% at 5-HT2B receptor, 58% on 5-HT2C receptor and 98.1% at 5-HT2A receptor. In addition, the values for the EC50 at 5-HT2B receptor, at 5-HT2C receptor and on 5-HT2A receptor were 0.0942 µM, 0.131 µM and 0.0112 µM, respectively.

In the case of `COc1c(F)ccc2[nH]cc(CCN(C(C)C)C(C)C)c12` [Example P-95, N-(2-(5-fluoro-4-methoxy-1H-indol-3-yl)ethyl)-N-isopropylpropan-2-amine], the Emax on 5-HT2B receptor is 96.3%; at 5-HT2C receptor it was 83%; at 5-HT2A receptor, 93.2%. Besides, the EC50 at 5-HT2B receptor turned out to be 0.0216 µM; on 5-HT2C receptor, 0.26 µM; on 5-HT2A receptor, 0.02 µM.

With `CCN(C)CCc1c[nH]c2cc(F)cc(OC)c12` [Example P-96, N-ethyl-2-(6-fluoro-4-methoxy-1H-indol-3-yl)-N-methylethan-1-amine], the Emax on 5-HT2B receptor was 19.6%; on 5-HT2C receptor it was 79.6%; at 5-HT2A receptor it was 73.6%. Further, the EC50 at 5-HT2B receptor is over 10 µM; at 5-HT2C receptor, 0.0602 µM; at 5-HT2A receptor, 0.008 µM.

Consider `COc1cc(F)cc2[nH]cc(CCN(C)C(C)C)c12` [Example P-97, N-(2-(6-fluoro-4-methoxy-1H-indol-3-yl)ethyl)-N-methylpropan-2-amine], for which the Emax at 5-HT2B receptor is 14.2%; on 5-HT2C receptor, 59.8%; on 5-HT2A receptor it was 65.4%. Besides, the EC50 on 5-HT2B receptor was over 10 µM; at 5-HT2C receptor, 0.336 µM; on 5-HT2A receptor it was 0.00676 µM.

For the molecule `CCN(CC)CCc1c[nH]c2cc(F)cc(OC)c12` [Example P-98, N,N-diethyl-2-(6-fluoro-4-methoxy-1H-indol-3-yl)ethan-1-amine], the Emax stood at 63.6% on 5-HT2B receptor, 71.8% on 5-HT2C receptor and 64.3% at 5-HT2A receptor. The EC50 stood at 5.43 µM at 5-HT2B receptor, 0.311 µM at 5-HT2C receptor and 0.016 µM on 5-HT2A receptor.

In the case of `CCN(CCc1c[nH]c2cc(F)cc(OC)c12)C(C)C` [Example P-99, N-ethyl-N-(2-(6-fluoro-4-methoxy-1H-indol-3-yl)ethyl)propan-2-amine], the Emax at 5-HT2B receptor was determined as 116%; at 5-HT2C receptor it was 79.3%; on 5-HT2A receptor, 81.4%. Moreover, the EC50 on 5-HT2B receptor is 0.913 µM; on 5-HT2C receptor, 0.755 µM; at 5-HT2A receptor, 0.0307 µM.

Turning to `COc1cc(F)cc2[nH]cc(CCN(C(C)C)C(C)C)c12` [Example P-100, N-(2-(6-fluoro-4-methoxy-1H-indol-3-yl)ethyl)-N-isopropylpropan-2-amine], the values for the Emax on 5-HT2B receptor, at 5-HT2C receptor and at 5-HT2A receptor were 128%, 76.9% and 91.3%, respectively. Moreover, the EC50 was 0.436 µM on 5-HT2B receptor, 0.864 µM on 5-HT2C receptor and 0.0514 µM at 5-HT2A receptor.

`COc1ccc(F)c2[nH]cc(CCN(C)C)c12` [Example P-101, 2-(7-fluoro-4-methoxy-1H-indol-3-yl)-N,N-dimethylethan-1-amine]: the Emax on 5-HT2B receptor was determined as 4.06%; at 5-HT2C receptor it was 53.1%; at 5-HT2A receptor, 71.6%. In addition, the EC50 at 5-HT2B receptor was over 10 µM; on 5-HT2C receptor it was 0.00828 µM; on 5-HT2A receptor, 0.00384 µM.

Consider `CCN(C)CCc1c[nH]c2c(F)ccc(OC)c12` [Example P-102, N-ethyl-2-(7-fluoro-4-methoxy-1H-indol-3-yl)-N-methylethan-1-amine], for which the values for the Emax on 5-HT2B receptor, at 5-HT2C receptor and at 5-HT2A receptor were 3.44%, 47.5% and 60.8%, respectively. For the same molecule, the results for the EC50 at 5-HT2B receptor, at 5-HT2C receptor and at 5-HT2A receptor were over 10 µM, 0.155 µM and 0.015 µM, respectively.

Consider `COc1ccc(F)c2[nH]cc(CCN(C)C(C)C)c12` [Example P-103, N-(2-(7-fluoro-4-methoxy-1H-indol-3-yl)ethyl)-N-methylpropan-2-amine], for which the Emax at 5-HT2B receptor amounted to 3.67%; at 5-HT2C receptor, 7.02%; on 5-HT2A receptor, 61.8%. Moreover, the EC50 is over 10 µM at 5-HT2B receptor, over 10 µM on 5-HT2C receptor and 0.0346 µM on 5-HT2A receptor.

For `CCN(CC)CCc1c[nH]c2c(F)ccc(OC)c12` [Example P-104, N,N-diethyl-2-(7-fluoro-4-methoxy-1H-indol-3-yl)ethan-1-amine], the results for the Emax at 5-HT2B receptor, at 5-HT2C receptor and on 5-HT2A receptor were 13.1%, 52.5% and 77.5%, respectively. In addition, the EC50 on 5-HT2B receptor is over 10 µM; at 5-HT2C receptor, 8.18 µM; at 5-HT2A receptor, 0.0283 µM.

On to `COc1ccc(F)c2[nH]cc(CCN(C(C)C)C(C)C)c12` [Example P-105, N-(2-(7-fluoro-4-methoxy-1H-indol-3-yl)ethyl)-N-isopropylpropan-2-amine], for which the figures for the Emax at 5-HT2B receptor, at 5-HT2C receptor and at 5-HT2A receptor were 127%, 92.6% and 91.2%, respectively. The EC50 on 5-HT2B receptor was determined as 0.134 µM; at 5-HT2C receptor it was 1.2 µM; at 5-HT2A receptor it was 0.147 µM.

For the molecule `CCN(C)CCc1c[nH]c2c(F)cc(OC)cc12` [Example P-115, N-ethyl-2-(7-fluoro-5-methoxy-1H-indol-3-yl)-N-methylethan-1-amine], the Emax at 5-HT2B receptor amounted to 16.4%; at 5-HT2C receptor, 81.7%; on 5-HT2A receptor, 85.6%.

On to `COc1cc(F)c2[nH]cc(CCN(C)C(C)C)c2c1` [Example P-116, N-(2-(7-fluoro-5-methoxy-1H-indol-3-yl)ethyl)-N-methylpropan-2-amine], for which the Emax on 5-HT2B receptor amounted to 23.1%; at 5-HT2C receptor it was 60.5%; on 5-HT2A receptor, 60.2%. Moreover, the figures for the EC50 on 5-HT2B receptor, on 5-HT2C receptor and at 5-HT2A receptor were 0.136 µM, 0.72 µM and 0.0157 µM, respectively.

For `CCN(CC)CCc1c[nH]c2c(F)cc(OC)cc12` [Example P-117, N,N-diethyl-2-(7-fluoro-5-methoxy-1H-indol-3-yl)ethan-1-amine], the Emax was 41.2% on 5-HT2B receptor, 81.5% at 5-HT2C receptor and 95.8% at 5-HT2A receptor.
